Earlier results, collected in patent US20060211664A1, “Method for treating erectile dysfunction and increasing libido in men” (priority 2002, published 2006).
Structures can show the parent of a compound that is named as a salt.

Experiments:
[1] = molecular target: sex hormone binding globulin (SHBG) and albumin (Homo sapiens, UniProt P02768); details: in men
[2] = molecular target: T1, sex hormone binding globulin (SHBG) and albumin (Homo sapiens, UniProt P04278); details: in men, high-affinity
T1 sequence (P04278 30-402): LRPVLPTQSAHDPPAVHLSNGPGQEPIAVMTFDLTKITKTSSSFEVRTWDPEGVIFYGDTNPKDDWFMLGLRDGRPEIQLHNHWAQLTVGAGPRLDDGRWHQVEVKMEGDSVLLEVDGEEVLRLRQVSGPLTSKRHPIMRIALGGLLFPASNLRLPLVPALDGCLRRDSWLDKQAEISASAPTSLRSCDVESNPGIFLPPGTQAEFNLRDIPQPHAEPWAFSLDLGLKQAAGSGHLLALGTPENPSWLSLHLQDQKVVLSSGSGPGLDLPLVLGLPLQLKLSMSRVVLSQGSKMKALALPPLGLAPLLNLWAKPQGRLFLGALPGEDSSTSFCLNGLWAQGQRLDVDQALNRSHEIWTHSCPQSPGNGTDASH

[3] = tested on: sex hormone binding globulin (SHBG) and albumin; details: blood
[4] = tested on: isolated human corpus cavernosum

Sequence of sex hormone binding globulin (SHBG) and albumin (Homo sapiens, UniProt P02768) (P02768 25-609): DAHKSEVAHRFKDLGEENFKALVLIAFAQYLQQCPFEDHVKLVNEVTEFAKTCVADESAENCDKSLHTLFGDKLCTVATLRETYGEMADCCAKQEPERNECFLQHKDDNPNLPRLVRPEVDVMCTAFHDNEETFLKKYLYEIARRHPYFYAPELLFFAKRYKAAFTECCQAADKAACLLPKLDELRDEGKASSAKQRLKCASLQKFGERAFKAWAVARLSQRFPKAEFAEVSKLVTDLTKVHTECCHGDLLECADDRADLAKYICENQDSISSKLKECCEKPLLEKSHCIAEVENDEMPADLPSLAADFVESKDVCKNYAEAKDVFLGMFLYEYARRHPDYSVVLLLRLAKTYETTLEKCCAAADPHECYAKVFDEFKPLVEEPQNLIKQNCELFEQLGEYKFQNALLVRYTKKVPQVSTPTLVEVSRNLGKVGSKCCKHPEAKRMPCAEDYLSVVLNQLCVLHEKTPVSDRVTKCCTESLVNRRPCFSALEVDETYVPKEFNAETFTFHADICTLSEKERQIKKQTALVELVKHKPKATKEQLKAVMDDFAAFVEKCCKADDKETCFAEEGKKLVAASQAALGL

SMILES | share of the binding bound weakly to albumin [1] [%] | share of the binding to sex hormone binding globulin (SHBG) [2] | testosterone in the blood bound to protein [3] [%] | direct relaxant effect on isolated human corpus cavernosum [4]
C[C@]12CC[C@H]3[C@@H](CCC4=CC(=O)CC[C@@]43C)[C@@H]1CC[C@@H]2O [Testosterone, testosterone] | 60 | approximately 40% | 98 | –
CCCc1nn(C)c2c(=O)[nH]c(-c3cc(S(=O)(=O)N4CCN(C)CC4)ccc3OCC)nc12 [VIAGRA®, sildenafil citrate USP] | – | – | – | no direct relaxant effect
